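Each compound was tested at five concentrations against cells in 96-well plates for 48 hours. At the GI50, growth is halved.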 Active and inactive are the calls of the source. Rule as the data show it: active = GI50 up to about 1.1 µM and inactive = higher.
Key:
Assay in all cases: inhibition of tumour cell growth, NCI panel, 48 h
[1] = system: MOLT-4
[2] = system: CCRF-CEM
[3] = system: SN12C
[4] = system: HT-29
[5] = system: Hs-578T
[6] = system: OVCAR-3
[7] = system: TK-10
[8] = system: BT-549
[9] = system: SK-MEL-5
[10] = system: PC-3
[11] = system: SW-620
[12] = system: EKVX
[13] = system: UACC-257
[14] = system: IGROV-1
[15] = system: UO-31
[16] = system: A549
[17] = system: RPMI-8226
[18] = system: SK-OV-3
[19] = system: HCC 2998
[20] = system: NCI-H226

SMILES | GI50 [1] | GI50 [2] | GI50 [3] | GI50 [4] | GI50 [5] | GI50 [6] | GI50 [7] | GI50 [8] | GI50 [9] | GI50 [10] | GI50 [11] | GI50 [12] | GI50 [13] | GI50 [14] | GI50 [15] | GI50 [16] | GI50 [17] | GI50 [18] | GI50 [19] | GI50 [20]
CC[C@@]1(O)C(=O)OCc2c1cc1n(c2=O)Cc2c-1nc1ccccc1c2/C=N\NC(=O)C(N)CO (stereo not given in full) | 0.0466 µM (active) | 0.0474 µM (active) | 0.182 µM (active) | 2.86 µM (inactive) | > 67.9 µM (inactive) | 16.2 µM (inactive) | > 60.7 µM (inactive) | 2.56 µM (inactive) | 0.684 µM (active) | 2.2 µM (inactive) | 1.62 µM (inactive) | 18.8 µM (inactive) | 3.59 µM (inactive) | 7.59 µM (inactive) | 0.667 µM (active) | 1.05 µM (active) | 1.13 µM (inactive) | 2.36 µM (inactive) | 12.1 µM (inactive) | 0.627 µM (active)
CCOP(=O)(OCC)C(NC(=O)OCC(Cl)(Cl)Cl)n1nnc(C(=O)OC)c1C(=O)OC (stereo not given) | > 100 µM (inactive) | > 100 µM (inactive) | > 10 µM (inactive) | > 100 µM (inactive) | > 100 µM (inactive) | > 100 µM (inactive) | > 100 µM (inactive) | > 100 µM (inactive) | > 100 µM (inactive) | 77.8 µM (inactive) | > 100 µM (inactive) | > 100 µM (inactive) | > 100 µM (inactive) | > 100 µM (inactive) | > 100 µM (inactive) | > 100 µM (inactive) | > 100 µM (inactive) | > 100 µM (inactive) | > 100 µM (inactive) | > 100 µM (inactive)
CC(=O)NCCC1CNc2ccccc21 (stereo not given) | > 100 µM (inactive) | > 100 µM (inactive) | > 100 µM (inactive) | > 100 µM (inactive) | > 100 µM (inactive) | > 100 µM (inactive) | > 100 µM (inactive) | > 100 µM (inactive) | > 100 µM (inactive) | > 100 µM (inactive) | > 100 µM (inactive) | > 100 µM (inactive) | > 100 µM (inactive) | > 100 µM (inactive) | > 100 µM (inactive) | > 100 µM (inactive) | > 100 µM (inactive) | > 100 µM (inactive) | > 100 µM (inactive) | > 100 µM (inactive)
CN(C)CCCCN1c2ccccc2Sc2ccc(C(=O)c3ccccc3)cc21 | 2.21 µM (inactive) | 2.27 µM (inactive) | 3.11 µM (inactive) | 1.89 µM (inactive) | 2.22 µM (inactive) | 3.98 µM (inactive) | 3.8 µM (inactive) | 6.01 µM (inactive) | 1.82 µM (inactive) | 2.32 µM (inactive) | 1.77 µM (inactive) | 6.65 µM (inactive) | 1.94 µM (inactive) | 2.9 µM (inactive) | 2.6 µM (inactive) | 3.47 µM (inactive) | 2.24 µM (inactive) | 13 µM (inactive) | 1.83 µM (inactive) | 5.96 µM (inactive)
Cc1cc(NC(=O)C(=O)Cc2cnc3ccccc3n2)c(S(=O)(=O)O)cc1Cl | > 100 µM (inactive) | > 100 µM (inactive) | > 100 µM (inactive) | > 100 µM (inactive) | > 100 µM (inactive) | > 100 µM (inactive) | > 100 µM (inactive) | > 100 µM (inactive) | > 100 µM (inactive) | > 100 µM (inactive) | > 100 µM (inactive) | > 100 µM (inactive) | > 100 µM (inactive) | > 100 µM (inactive) | > 100 µM (inactive) | > 100 µM (inactive) | > 100 µM (inactive) | > 100 µM (inactive) | > 100 µM (inactive) | > 100 µM (inactive)
CCN(CC)CCNc1ccc2nnn3c4ccc(OC(C)=O)cc4c(=O)c1c23 | 0.284 µM (active) | 0.644 µM (active) | 2.26 µM (inactive) | 1.47 µM (inactive) | 4.39 µM (inactive) | 7.96 µM (inactive) | 3.52 µM (inactive) | 13.4 µM (inactive) | 1.88 µM (inactive) | 3.62 µM (inactive) | 1.11 µM (active) | 5.56 µM (inactive) | 9.84 µM (inactive) | 0.224 µM (active) | 1.63 µM (inactive) | 3.14 µM (inactive) | 1.59 µM (inactive) | 7.35 µM (inactive) | 2.53 µM (inactive) | 0.615 µM (active)

Source: ChEMBL document CHEMBL1201862, “PubChem BioAssay data set” (2004)
